# Experimental data taken from paper PMC3734263, “Fatty Acid Amide Hydrolase-Dependent Generation of Antinociceptive Drug Metabolites Acting on TRPV1 in the Brain” (PLoS ONE, 2013).
# pEC50: −log10 of the molar value. Several values for one entry are separate records, joined by “and”; a condition that tells them apart may be missing. Equal entries are not always repeated. Where two headings read alike, the source gives them in different places.
# Assays:
# [1] = test system: spinal serotonergic pathways; test: Spinal serotonin content after lesion of descending serotonergic pathways; assay type: in vivo; conditions: 5,7-DHT 100 µg/rat intrathecal, 7 days; control 529±34
# rats [2] = test: Paw pressure test, rat
# Experimental: The behavioural tests were performed in a quiet room and evaluated by a single investigator in a blinded manner. Treatments and/or genotypes were randomized in blocks and the number of animals in each block corresponded to the number of treatments and/or genotypes compared. […] Each animal was exposed to only one treatment.
# The rats were submitted to the paw pressure test, using an Ugo Basile analgesy meter with a probe tip diameter of 1 mm (Bioseb, France). Nociceptive thresholds, expressed in grams (g), were measured by applying an increasing pressure to the right hind paw until a squeak (vocalization thresholds) was obtained (cut-off 750 g). Two consecutive stable vocalisation threshold values were first obtained (baseline).
# Intrathecal injections were performed on anaesthetised rats held in one hand by the pelvic girdle. A 25 gauge 1 inch needle connected to a 25 µl Hamilton syringe was then inserted into the subarachnoidal space between lumbar vertebrae L5 and L6 until a tail flick was elicited. The syringe was held in position for few seconds after the injection of a volume of 10 µl [49]. All injections were performed under isoflurane anaesthesia (4% induction, 2% maintenance).
# rats [3] = test: Formalin test, rat; assay type: in vivo
# Experimental: (§1) The animals received an intraplantar injection of a 2.5% formalin solution (50 µl rat, 25 µl mouse) into a hind paw. The time spent biting and licking of the injected paw was monitored during the two typical phases of the nociceptive response (phase I: 0–5 min; phase II: 20–40 min in rats or 15–40 min in mice).
# TRPV1 = target: T1, TRPV1 (Rattus norvegicus, UniProt O35433); test: TRPV1 activation assessed as nerve-mediated vasorelaxation in rat isolated mesenteric arteries; assay type: cell-based; conditions: for times more potent than HPODA as TRPV1 activator / times more potent than AM404 as TRPV1 activator: vasorelaxation readout
# T1 construct: rat mesenteric arterial segments precontracted with phenylephrine; from tissue; host or cells: rat isolated mesenteric arterial segments (Sprague-Dawley rats)
# T1 sequence (O35433 whole entry): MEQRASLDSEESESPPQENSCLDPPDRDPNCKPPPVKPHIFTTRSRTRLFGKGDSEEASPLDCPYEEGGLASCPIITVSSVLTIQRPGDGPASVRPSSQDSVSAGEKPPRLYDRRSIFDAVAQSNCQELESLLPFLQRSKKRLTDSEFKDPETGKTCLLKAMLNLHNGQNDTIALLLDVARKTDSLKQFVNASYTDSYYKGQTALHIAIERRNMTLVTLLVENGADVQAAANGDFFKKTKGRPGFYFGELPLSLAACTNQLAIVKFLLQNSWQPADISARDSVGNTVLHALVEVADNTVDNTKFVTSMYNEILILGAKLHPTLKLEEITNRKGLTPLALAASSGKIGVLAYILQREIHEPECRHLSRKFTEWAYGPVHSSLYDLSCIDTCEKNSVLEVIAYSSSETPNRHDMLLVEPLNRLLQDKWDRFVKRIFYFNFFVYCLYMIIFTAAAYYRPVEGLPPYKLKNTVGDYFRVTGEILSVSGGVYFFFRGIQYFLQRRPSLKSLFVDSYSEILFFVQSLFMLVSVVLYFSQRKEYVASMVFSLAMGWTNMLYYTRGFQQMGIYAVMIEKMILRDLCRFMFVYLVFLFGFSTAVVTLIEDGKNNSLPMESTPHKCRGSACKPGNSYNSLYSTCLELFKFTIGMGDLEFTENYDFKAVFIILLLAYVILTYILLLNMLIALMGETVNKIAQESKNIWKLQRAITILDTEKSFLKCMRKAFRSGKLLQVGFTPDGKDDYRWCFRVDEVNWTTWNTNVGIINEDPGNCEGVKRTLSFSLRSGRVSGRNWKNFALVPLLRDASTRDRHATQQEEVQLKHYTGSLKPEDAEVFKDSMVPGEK
# Experimental: TRPV1 activation was assessed indirectly on rat isolated mesenteric arteries, using nerve-mediated vasorelaxation as readout. Briefly, arterial segments (2 mm long) were suspended between two stainless steel wires in temperature-controlled tissue baths (37°C), containing aerated (95% O2 and 5% CO2) physiological salt solution (composition in mM: NaCl 119, KCl 4.6, CaCl2 1.5, MgCl2 1.2, NaHCO3 15, NaH2PO4 1.2 and D-glucose 6; pH 7.4), under a passive load of 2 mN. One of the wires was connected to a force-displacement transducer model FT03 C (Grass Instruments; Rhode Island, USA) for isometric tension recording. Vasorelaxation was studied in arterial segments submaximally contracted with phenylephrine. Increasing concentrations of AM404, arvanil, olvanil and HPODA in the absence and presence of capsazepine (3 µM) were then added cumulatively to determine concentration-response relationships. All experiments were performed in the presence of indomethacin (10 µM) and N^ω-nitro-L-arginine (300 µM) to reduce cyclooxygenase and nitric oxide synthase activity, respectively.
# Data are presented as the mean ± SEM, and n indicates the number of animal tested in each group. pEC50 of the lipid metabolites indicates the negative log concentration that elicited half-maximal vasorelaxation. Mann-Whitney U test or Student’s t-test was used when two groups were compared. When multiple groups were compared, Kruskal-Wallis one-way ANOVA followed by Dunn’s multiple comparisons test was used. Data from the paw pressure test were analyzed by repeated measures two-way ANOVA followed by Sidak’s or Dunnett’s multiple comparisons test. The level of statistical significance was set at p<0.05. GraphPad Prism 6.0 software (California, USA) was used in all calculations and statistical analyses.
# [4] = assay type: in vivo, rat
# Experimental: […] The brain was removed from the skull and blood was collected in test tubes, containing 60 µl buffered citrate, and the tissues snap frozen in liquid nitrogen before storage at −70°C.
# (§2) The whole brain was homogenized in ice-cold 10 mM Tris buffer (ml/g tissue) at pH 7.6. The buffer solution contained 1 mM EDTA, 0.3 mM ascorbic acid and 10 µM methylarachidonylfluorophosphonate (MAFP) to prevent degradation of AM404, arvanil, olvanil, anandamide and 2-arachidonoylglycerol. Aliquots (200 µl) of blood and homogenates were precipitated with 1 ml ice-cold acetone, containing AM404-D4 (5 nM) or anandamide-D8 (100 nM) as internal standard. After centrifugation at 25,200 g for 30 min at 4°C, the supernatants were collected in polypropylene tubes and vacuum evaporated. The protein content of the pellet was determined with Coomassie protein assay (Pierce; Illinois, USA), using bovine serum albumin as standard. […] Samples were analyzed on a Waters Aquity UPLC system coupled to a Sciex 5500 tandem mass spectrometer (LC-MS/MS; AB Sciex; Massachusetts, USA) or a Perkin Elmer 200 HPLC system coupled to an API 3000 tandem mass spectrometer (LC-MS-MS; Applied Biosystems/MDS-SCIEX).
# Quantification of AM404, HPODA, arvanil and olvanil. Samples were analyzed on a Waters Aquity UPLC system coupled to a Sciex 5500 tandem mass spectrometer. […]
# [5] = Contents of amines and lipid metabolites in blood and brain after i.p. injection in mice (LC-MS/MS); assay type: in vivo, mouse
# Experimental: Twenty min after drug administration, the animals were anesthetized by CO2 (rats) or isoflurane (mice) inhalation and decapitated. The brain was removed from the skull and blood was collected in test tubes, containing 60 µl buffered citrate, and the tissues snap frozen in liquid nitrogen before storage at −70°C.
# as §2
# Quantification of AM404, HPODA, arvanil and olvanil. Samples were analyzed on a Waters Aquity UPLC system coupled to a Sciex 5500 tandem mass spectrometer. Sample aliquots of 5 µl were injected into an Acquity UPLC BEH C18 column (100 × 2 mm, 1.7 µm; Waters) held at 50°C. All mobile phases were water-acetonitrile gradients, containing 0.1% formic acid and using a flow rate of 400 µl/min. The acetonitrile content was initially 30%, then increased linearly to 100% over 7 min and kept at this level for 4 min, followed by an equilibration period at 30% for 2 min. The electrospray interface was operating in the positive ion mode at 550°C and the ion spray voltage was set to 5000 volts. The mass transitions (m/z) used were the following: 396.2/110.1 for AM404, 374.2/110.0 for HPODA, 400.2/114.0 for AM404-D4, 440.3/137.1 for arvanil and 418.3/137.1 for olvanil. The declustering potentials were between 96 and 130 volts and the collision energies between 25 and 41 volts.
# Quantification of 4-aminophenol and HMBA. Sample aliquots of 5 µl were injected into a Hypercarb column (50 × 2.1 mm; Thermo). All mobile phases were water-acetonitrile gradients, containing 0.1% formic acid. The acetonitrile content was initially 2%, then increased linearly to […] over 5 min and then kept at 100% for 1 min, followed by an equilibration period at 2% for 1.5 min. The electrospray ion source was set at 550°C and used in the positive ion mode with an ion spray voltage of 5000. […] HMBA loses the amino group already in the source of the MS and therefore the mass transition used was 137.0/94.0. The declustering potentials were 100 and 90 volts and the collision energies 21 and 29 volts. No internal standard was used for these analyses.
# The contents of the compounds were expressed either in moles or as normalized peak areas (nPA) and related to the protein content in the samples. The nPA was obtained by dividing the peak area of the analyte with the peak area for the internal standard in the same sample. The detection limits were calculated as the concentrations corresponding to three times the standard deviation of the blanks. When levels were below detection limit, numerical values of half the detection limit were used in the calculations.
# [6] = test system: patients with postoperative pain; design: method as in PMID 18843665; conditions: single oral dose of 1000 mg; cited from earlier work
# human TRPV1 = test system: human TRPV1; design: method as in PMID 11033355; conditions: HEK293 cells expressing human TRPV1, fluorometric calcium imaging; cited from earlier work
# rat orthologue of TRPV1 = test system: rat orthologue of TRPV1; design: method as in PMID 11159715; conditions: 45Ca2+ uptake assay, CHO cells expressing rat TRPV1; cited from earlier work
# mice = test: Formalin test, mouse; assay type: in vivo; conditions: mice
# Experimental: as §1
# [7] = AM251 3 mg/kg i.p., 4-aminophenol 100 mg i.p.
# [8] = 20 min after i.p. 4-aminophenol (30 and 100 mg/kg) or HMBA (300 mg/kg)
# [9] = PMSF 10 mg/kg s.c., 4-aminophenol 100 mg/kg i.p.
# [10] = 20 min after HMBA 300 mg/kg i.p., mouse
# [11] = capsazepine 10 mg/kg i.p., 4-aminophenol 100 mg/kg
compound,measurement,setting,value
"NCCc1c[nH]c2c(O)cc(O)cc12 [5,7-DHT, 5,7-dihydroxytryptamine]",spinal serotonin content,[1],359±38 ng/g tissue wet weight
same,"effect on antinociceptive effect of 4-aminophenol, rat paw pressure test","rats [2]; 5,7-DHT 100 µg/rat intrathecal, 7 days before test, 4-aminophenol 100 mg/kg i.p.",inhibited the antinociceptive effect
"Cc1c(C(=O)NN2CCCCC2)nn(-c2ccc(Cl)cc2Cl)c1-c1ccc(I)cc1 [AM251, N-(piperidin-1-yl)-5-(4-iodophenyl)-1-(2,4-dichlorophenyl)-4-methyl-1H-pyrazole-3-carboxamide]","effect on antinociceptive effect of 4-aminophenol, rat paw pressure test",rats [2]; [7],prevented the antinociceptive effect
same,"effect on antinociceptive effect of 4-aminophenol, rat formalin test",rats [3]; [7],prevented the antinociceptive effect
"CCCCC/C=C\C/C=C\C/C=C\C/C=C\CCCC(=O)Nc1ccc(O)cc1 [AM404, N-(4-Hydroxyphenyl)-5Z,8Z,11Z,14Z-eicosatetraenamide]",pEC50,TRPV1,7.50
same,times more potent than HPODA as TRPV1 activator,TRPV1,3.3 times
same,content of AM404 in rat brain at different time points,"[4]; 4-aminophenol 100 mg/kg i.p., 15 min and 30 min",Significant amounts
same,Brain AM404,"[5]; 20 min after 4-AP 30 mg/kg i.p., mouse",411 pmol/g and 411 ± 134 pmol/g
same,Brain AM404,"[5]; 20 min after 4-AP 100 mg/kg i.p., mouse",4829 ± 1435 pmol/g
same,brain content in FAAH−/− mice compared to FAAH+/+ littermates,[5]; [8],substantially reduced
same,quotient between the brain contents of lipid metabolite and its parent amine,"[5]; mouse, in vivo","1∶1,500"
"CCCCCCCC/C=C\CCCCCCCC(=O)Nc1ccc(O)cc1 [HPODA, N-(4-hydroxyphenyl)-9Z-octadecenamide]",EC50,"TRPV1; capsazepine-sensitive vasorelaxation, rat mesenteric arterial segments precontracted with phenylephrine, read-out: pEC50 (negative log concentration eliciting half-maximal vasorelaxation) (converted)",100 nM
same,brain content in FAAH−/− mice compared to wild-type littermates,"[5]; mouse, in vivo",no significant difference
same,increase of brain content in FAAH−/− mice compared to wild-type littermates,"[5]; mouse, in vivo, 20 min",3 fold
"O=S(=O)(F)Cc1ccccc1 [PMSF, phenylmethylsulfonyl fluoride]",effect on formation of AM404 in rat brain,"[4]; PMSF 10 mg/kg s.c. pretreatment, 20 min after 4-aminophenol 100 mg/kg i.p.",substantially reduced the formation of AM404
same,"effect on antinociceptive effect of 4-aminophenol, rat paw pressure test",rats [2]; [9],inhibited the antinociceptive effect
same,"effect on antinociceptive effect of 4-aminophenol, rat formalin test",rats [3]; [9],inhibited the antinociceptive effect
CC(=O)Nc1ccc(O)cc1 [Paracetamol],NNT (numbers needed to treat) for at least 50% pain reduction over 4–6 hours,[6],3.6
"COc1ccccc1N1CCN(CCN(C(=O)C2CCCCC2)c2ccccn2)CC1.O=C(O)/C=C\C(=O)O [WAY-100635, N-[2-[4-(2-methoxyphenyl)-1-piperazinyl]ethyl]-N-2-pyridinylcyclohexane-carboxamide maleate]","effect on antinociceptive effect of 4-aminophenol, rat formalin test",rats [3]; WAY-100635 40 µg/rat intrathecal 5 min before 4-aminophenol 100 mg/kg i.p.,prevented
"CCCCC/C=C\C/C=C\C/C=C\C/C=C\CCCC(=O)NCc1ccc(O)c(OC)c1 [arvanil, N-(4-hydroxy-3-methoxybenzyl)-5Z,8Z,11Z,14Z-eicosatetraenamide]",pEC50,TRPV1,9.70
same,times more potent than AM404 as TRPV1 activator,TRPV1,> 100 times and 172 times
same,times more potent than HPODA as TRPV1 activator,TRPV1,> 300 times
same,times more potent than AM404,human TRPV1,approximately 50 times
same,times more potent than AM404,rat orthologue of TRPV1,933 times
same,Brain Arvanil,"[5]; 20 min after HMBA 100 mg/kg i.p., mouse",3.33 pmol/g
same,Brain Arvanil,"[5]; 20 min after HMBA 100 mg/kg i.p., mouse, listed as Arvanil",3.33 ± 0.33 pmol/g
same,Brain Arvanil,[5]; [10],56 ± 10 pmol/g
same,brain content in FAAH−/− mice compared to FAAH+/+ littermates,[5]; [8],substantially reduced
same,concentration at 20 min,"[5]; in vivo, HMBA 100 mg/kg, mouse, read-out: brain content of arvanil",3.33 pM
"Oc1cc2c(cc1O)CN(C(=S)NCCc1ccc(Cl)cc1)CCC2 [capsazepine, N-[2-(4-Chlorophenyl)ethyl]-1,3,4,5-tetrahydro-7,8-dihydroxy-2H-2-benzazepine-2-carbothioamide]","effect on vasorelaxation evoked by arvanil, olvanil and HPODA",TRPV1; capsazepine 3 µM,significantly suppressed the vasorelaxation
same,effect on antinociceptive effect of 4-aminophenol in formalin test,mice; capsazepine 100 nmol into lateral ventricle 5 min prior to 4-aminophenol 30 mg/kg i.p.,eliminated the antinociceptive effects
same,effect on antinociceptive effect of HMBA in formalin test,mice; capsazepine 100 nmol into lateral ventricle 5 min prior to HMBA 100 mg/kg i.p.,eliminated the antinociceptive effects
same,"effect on antinociceptive effect of 4-aminophenol, rat paw pressure test",rats [2]; [11],prevented the antinociceptive effect
same,"effect on antinociceptive effect of 4-aminophenol, rat formalin test",rats [3]; [11],prevented the antinociceptive effect
Cc1c(N(C)CS(=O)(=O)[O-])c(=O)n(-c2ccccc2)n1C.[Na+] [dipyrone],antinociception in formalin test,mice; dipyrone 50 mg/kg i.p.,effective antinociceptive agent
"CCCCCCCC/C=C\CCCCCCCC(=O)NCc1ccc(O)c(OC)c1 [olvanil, N-(4-hydroxy-3-methoxybenyl)-9Z-octadecenamide]",pEC50,TRPV1,9.50
same,times more potent than AM404 as TRPV1 activator,TRPV1,> 100 times and 110 times
same,times more potent than HPODA as TRPV1 activator,TRPV1,> 300 times
same,times more potent than AM404,human TRPV1,approximately 50 times
same,Brain Olvanil,[5]; [10],45 ± 5.6 pmol/g
same,brain content in FAAH−/− mice compared to FAAH+/+ littermates,"[5]; mouse, in vivo",substantially reduced
"CN1[C@@H]2CC[C@H]1C[C@@H](OC(=O)c1c[nH]c3ccccc13)C2 [tropisetron, Tropisetron]","effect on antinociceptive effect of 4-aminophenol, rat paw pressure test",rats [2]; tropisetron 500 ng/rat intrathecal 5 min before 4-aminophenol 100 mg/kg i.p.,prevented
